Test results reported in ChEMBL document CHEMBL1201862, “PubChem BioAssay data set” (2004).
Values belong to the molecule of their own block, whether it stands above or below them. Calls of active or inactive are those of the source.

Tests used:
[1] = cytotoxicity in HEK-293T cells, dose response, cytotoxicity control for BCR NF-kB inhibitor project, luminescence, B-cell screen hits (AID 489021); assay type: functional, cell-based;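 further: HEK-293T cells carrying an NF-kB luciferase reporter; cells exposed to compound for about 14 hours before viability readout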
INS1 = assay: beta cell apoptosis inhibitors, cytokine rescue, dose response, luminescence, retest (AID 449756); assay type: functional, cell-based; conditions: Rattus norvegicus;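 further: cell death triggered by IL-1 beta plus TNF-alpha plus IFN-gamma mixture; protective hits raise ATP signal compared with cytokine alone wells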
[2] = target: G-protein coupled receptor 55 (Homo sapiens, UniProt Q9Y2T6); assay: GPR55 agonists via beta-arrestin recruitment, primary screen, imaging, U2OS cells, beta-arrestin-GFP redistribution (AID 1961); assay type: functional
[3] = target: T1, High affinity choline transporter 1 (Homo sapiens, UniProt Q9GZV3); assay: CHT inhibitors, dose response, cell-based, 5-point CRC, membrane potential dye (AID 504840); assay type: functional
T1 sequence (Q9GZV3 whole entry): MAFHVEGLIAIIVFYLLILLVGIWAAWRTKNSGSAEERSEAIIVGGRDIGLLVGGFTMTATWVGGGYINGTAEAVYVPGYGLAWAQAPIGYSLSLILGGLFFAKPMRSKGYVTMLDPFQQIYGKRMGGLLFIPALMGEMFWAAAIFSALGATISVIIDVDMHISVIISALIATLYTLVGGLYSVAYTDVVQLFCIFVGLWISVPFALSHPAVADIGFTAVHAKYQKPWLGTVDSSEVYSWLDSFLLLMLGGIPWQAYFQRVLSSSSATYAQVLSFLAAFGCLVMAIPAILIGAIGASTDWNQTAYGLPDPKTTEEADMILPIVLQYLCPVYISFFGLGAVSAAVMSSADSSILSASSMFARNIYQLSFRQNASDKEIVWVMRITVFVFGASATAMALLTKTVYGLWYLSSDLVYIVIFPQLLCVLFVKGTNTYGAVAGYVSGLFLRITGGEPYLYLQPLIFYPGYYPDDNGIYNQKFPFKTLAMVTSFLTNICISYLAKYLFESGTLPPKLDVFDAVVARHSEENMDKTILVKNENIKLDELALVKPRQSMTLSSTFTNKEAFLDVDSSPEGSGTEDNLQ

Cysteine protease ATG4B = target: T2, Cysteine protease ATG4B (Homo sapiens, UniProt Q9Y4P1); assay type: functional;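 further: Fluorescence-based dose-response confirmation assay measuring inhibition of ATG4B activity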
T2 sequence (Q9Y4P1 whole entry): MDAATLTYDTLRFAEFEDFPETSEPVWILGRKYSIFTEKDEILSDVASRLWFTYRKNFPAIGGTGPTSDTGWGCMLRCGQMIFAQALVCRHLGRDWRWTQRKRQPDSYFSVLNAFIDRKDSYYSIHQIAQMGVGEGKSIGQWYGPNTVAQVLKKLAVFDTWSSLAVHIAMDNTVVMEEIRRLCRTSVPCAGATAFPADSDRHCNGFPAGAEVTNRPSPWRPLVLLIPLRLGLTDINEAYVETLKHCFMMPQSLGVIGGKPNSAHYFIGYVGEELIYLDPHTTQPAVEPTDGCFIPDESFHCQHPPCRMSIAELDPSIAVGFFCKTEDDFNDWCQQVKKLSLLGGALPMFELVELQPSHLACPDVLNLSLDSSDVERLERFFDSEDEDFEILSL

[4] = inhibitors of intracellular T. cruzi replication, confirmation, NIH3T3 host cells, beta-gal luminescence (AID 2044); assay type: functional, cell-based;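 further: intracellular parasites grown in NIH/3T3 mouse fibroblasts as host cells; luminescent beta-galactosidase reporter signal from transgenic T. cruzi replicating inside host cells; inhibitors lower the luminescence signal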
Phospholipase A2 = Phospholipase A2 (Homo sapiens, UniProt P04054); assay type: functional;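 further: confirmatory dose-response counterscreen on phospholipase A2, testing hits that came from an ultra-high-throughput screen for ATG4B inhibitors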
[5] = cytotoxicity toward NIH3T3 fibroblasts, dose response, counter-screen, cell-based, ATP luminescence, mouse fibroblasts (AID 2010); assay type: functional;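 further: cells exposed to compound for about 90 hours before reading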
Aminopeptidase N = target: T3, Aminopeptidase N (Plasmodium falciparum FcB1/Columbia, UniProt O96935); assay: P. falciparum M1AAP inhibitors, biochemical, fluorogenic H-Leu-NHMec substrate, 1536-well (AID 1445); design: species or system Plasmodium falciparum 3D7, 3D7
T3 sequence (O96935 whole entry): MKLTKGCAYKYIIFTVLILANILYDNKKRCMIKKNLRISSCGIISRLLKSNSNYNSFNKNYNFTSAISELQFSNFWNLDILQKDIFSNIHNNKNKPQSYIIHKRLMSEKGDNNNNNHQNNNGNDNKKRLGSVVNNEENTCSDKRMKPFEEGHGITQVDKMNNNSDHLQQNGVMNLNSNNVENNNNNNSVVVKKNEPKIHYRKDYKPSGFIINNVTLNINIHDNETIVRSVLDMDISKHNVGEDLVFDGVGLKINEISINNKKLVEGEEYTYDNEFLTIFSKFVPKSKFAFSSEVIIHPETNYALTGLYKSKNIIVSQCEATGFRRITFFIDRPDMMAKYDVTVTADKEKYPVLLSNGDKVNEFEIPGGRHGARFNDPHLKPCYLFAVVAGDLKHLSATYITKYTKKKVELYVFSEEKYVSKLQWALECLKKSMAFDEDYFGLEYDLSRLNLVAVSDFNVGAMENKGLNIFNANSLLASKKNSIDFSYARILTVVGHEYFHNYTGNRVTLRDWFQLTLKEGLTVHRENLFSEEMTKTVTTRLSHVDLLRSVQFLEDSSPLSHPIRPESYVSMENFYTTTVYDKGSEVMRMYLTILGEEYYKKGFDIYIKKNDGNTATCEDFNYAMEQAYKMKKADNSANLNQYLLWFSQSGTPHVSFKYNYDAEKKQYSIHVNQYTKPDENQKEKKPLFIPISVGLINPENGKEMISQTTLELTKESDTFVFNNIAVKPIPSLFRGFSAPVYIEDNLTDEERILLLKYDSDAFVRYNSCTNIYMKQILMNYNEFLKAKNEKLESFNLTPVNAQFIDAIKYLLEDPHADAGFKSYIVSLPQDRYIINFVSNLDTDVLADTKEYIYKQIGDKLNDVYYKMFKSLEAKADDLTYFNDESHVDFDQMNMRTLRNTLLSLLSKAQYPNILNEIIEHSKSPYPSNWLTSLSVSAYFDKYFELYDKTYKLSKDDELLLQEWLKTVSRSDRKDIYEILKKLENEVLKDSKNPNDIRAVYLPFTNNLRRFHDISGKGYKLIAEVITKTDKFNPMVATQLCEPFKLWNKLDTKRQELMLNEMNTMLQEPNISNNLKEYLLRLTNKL

Cytochrome P450 2D6 = Cytochrome P450 2D6 (Homo sapiens, UniProt P10635);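 further: CYP2D6 member of a cytochrome P450 panel assay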
Sequence of Cytochrome P450 2D6 (P10635 whole entry): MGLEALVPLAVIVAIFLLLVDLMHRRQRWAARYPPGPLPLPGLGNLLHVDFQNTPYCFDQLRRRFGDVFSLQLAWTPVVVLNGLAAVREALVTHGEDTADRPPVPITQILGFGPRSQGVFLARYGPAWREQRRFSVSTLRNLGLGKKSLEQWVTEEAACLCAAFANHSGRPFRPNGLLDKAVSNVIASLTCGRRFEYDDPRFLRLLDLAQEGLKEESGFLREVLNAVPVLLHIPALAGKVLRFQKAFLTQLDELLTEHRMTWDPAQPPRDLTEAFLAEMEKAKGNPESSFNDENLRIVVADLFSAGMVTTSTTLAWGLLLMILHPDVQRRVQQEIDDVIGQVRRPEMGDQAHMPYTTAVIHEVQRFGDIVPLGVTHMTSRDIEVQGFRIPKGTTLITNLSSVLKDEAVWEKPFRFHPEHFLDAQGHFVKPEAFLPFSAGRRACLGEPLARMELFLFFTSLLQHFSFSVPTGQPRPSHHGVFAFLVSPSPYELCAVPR

Sequence of G-protein coupled receptor 55 (Q9Y2T6 whole entry): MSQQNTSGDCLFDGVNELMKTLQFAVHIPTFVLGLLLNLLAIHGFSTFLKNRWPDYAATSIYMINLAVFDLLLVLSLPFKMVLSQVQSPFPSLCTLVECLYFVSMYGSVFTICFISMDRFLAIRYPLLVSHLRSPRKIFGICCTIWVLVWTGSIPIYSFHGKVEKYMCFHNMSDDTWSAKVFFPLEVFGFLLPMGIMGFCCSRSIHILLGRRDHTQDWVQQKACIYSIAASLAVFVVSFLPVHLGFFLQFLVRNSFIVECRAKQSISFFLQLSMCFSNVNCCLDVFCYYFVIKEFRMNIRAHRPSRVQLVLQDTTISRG
Sequence of Phospholipase A2 (P04054 whole entry): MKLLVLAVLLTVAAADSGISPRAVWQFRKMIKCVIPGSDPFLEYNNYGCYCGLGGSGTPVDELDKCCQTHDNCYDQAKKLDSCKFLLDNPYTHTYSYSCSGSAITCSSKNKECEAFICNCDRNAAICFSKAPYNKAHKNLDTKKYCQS

Compound: c1ccc(CCNc2ncnc3ccccc23)cc1
- IC50 [1]: > 80 µM (inactive)
- AC50 (INS1): 1.05 µM (active)

Compound: COc1ccccc1N1CCN(C(c2cccs2)c2nnnn2C2CCCC2)CC1 (stereo not drawn)
- EC50 [2]: 6.33 µM (active)

Compound: CCOC(=O)c1cnc2c(C(F)(F)F)cccc2c1N1CCOCC1
- IC50 [3]: 13.5 µM (active)

Compound: O=S(=O)(c1ccc(F)cc1)c1nc(-c2ccccc2F)oc1N1CCCCC1
- IC50 (Cysteine protease ATG4B): 19.1 µM (active)
- EC50 [4]: 1.87 µM (active)
- IC50 (Phospholipase A2): 12.3 µM (active)
- EC50 [5]: > 30 µM (not active)

Compound: CC1CCN(C(=O)CCCOc2cc(=O)n(C)c3ccccc23)CC1
- IC50 [1]: > 80 µM (inactive)

Compound: CCN1C(=O)[C@H]2[C@@H]3[C@H](O)C=CC(=O)[C@H]3CC[C@H]2C1=O
- AC50 (Cytochrome P450 2D6): inconclusive

The remaining lines, values ahead:

- IC50 (Aminopeptidase N): 66.8 µM (active)
Compound: O=S(=O)(Nc1nc2cc3c(cc2nc1Cl)OCCO3)c1ccccc1

- AC50 (Cytochrome P450 2D6): inconclusive
Compound: COc1ccc(C(C(=O)NC2CCCCC2)N(C(=O)c2sc(C)nc2C)c2ccc(C(C)=O)cc2)cc1 (stereo not drawn)

- AC50 (Cytochrome P450 2D6): inconclusive
Compound: COc1cc(C(=O)NC(=S)Nc2ccc3oc(=O)ccc3c2)cc(OC)c1OC
